Values of other authors in US11707436B2, “Methods of treating inflammatory disorders and global inflammation with compositions comprising phospholipid nanoparticle encapsulations of NSAIDS” (NanoSphere Health Sciences, LLC, priority 2014, dated 2023).
≈ marks a conversion by molar mass, not a printed value. Blank lines part the entries; values can stand above or below the compound they belong to.

Columns and labels:
[1] = tested on: NF-KappaB; details: highly variable efficacy
[2] = tested on: NF-KappaB; details: for inhibition of NF-kappaB activity: concentrations comparable to those used in therapy; for inhibition of activation of the NF-KappaB pathway: concentrations measured in serum of treated patients
[3] = for Solubility of NSAIDs at 25 C: source drugbank.ca
[4] = tested on: NF-Kappa B
[5] = clinical studies
[6] = renal colic
[7] = after removal of lower third molars

Solubility of NSAIDs at 25 C [3]: 3.3 mg/mL
SMILES: CC(=O)Oc1ccccc1C(=O)O [Acetylsalicylic acid]
inhibition of TNF-induced NF-KappaB activation [1]: inhibited | inhibition of NF-kappaB activity [2]: effectively inhibit | inhibition of activation of the NF-KappaB pathway [2]: inhibit activation

SMILES: C=C(C)[C@@H]1CCC(C)=C[C@H]1c1c(O)cc(CCCCC)cc1O [Cannabidiol]
NF-Kappa B activation, pro-inflammatory cytokines and mediators (TNF-alpha, iNOS) [4]: attenuate | solubility in water ([3]; words only): insolubility in water

Solubility of NSAIDs at 25 C [3]: 50 mg/mL
SMILES: O=C(O)Cc1ccccc1Nc1c(Cl)cccc1Cl [Diclofenac]

Solubility of NSAIDs at 25 C [3]: 21 mg/mL | solubility water at 25° C [3]: 21 mg/mL (≈ 102 mM)
SMILES: CC(C)Cc1ccc(C(C)C(=O)O)cc1 (centres unmarked) [Ibuprofen]
inhibition of TNF-induced NF-KappaB activation [1]: inhibited | inhibition of NF-kappaB activity [2]: effectively inhibit

concentrations in CSF [5]: minimal concentrations | Solubility of NSAIDs at 25 C [3]: .937 mg/mL
SMILES: COc1ccc2c(c1)c(CC(=O)O)c(C)n2C(=O)c1ccc(Cl)cc1 [Indomethacin]

concentrations in CSF [5]: minimal concentrations
SMILES: CC(C(=O)O)c1cccc(C(=O)c2ccccc2)c1 (centres unmarked) [Ketoprofen]

SMILES: COc1ccc2cc([C@H](C)C(=O)O)ccc2c1 [Naproxen]
inhibition of TNF-induced NF-KappaB activation [1]: inhibited | inhibition of NF-kappaB activity [2]: effectively inhibit

SMILES: O=C(O)c1ccccc1O [Salicylic acid]
Solubility of NSAIDs at 25 C [3]: 3 mg/mL | solubility water at 25° C [3]: 3 mg/mL (≈ 21.7 mM)

SMILES: COc1cc(/C=C/C(=O)CC(=O)/C=C/c2ccc(O)c(OC)c2)ccc1O [curcumin]
inhibition of TNF-induced NF-KappaB activation [1]: inhibited

concentrations in CSF [5]: minimal concentrations
SMILES: CC(C(=O)O)c1ccc(N2CC=CC2)c(Cl)c1 (centres unmarked) [piroprofen]

SMILES: CN1C(C(=O)Nc2ccccn2)=C(O)c2ccccc2S1(=O)=O [piroxicam]
efficacy of sublingual versus IM injection [6]: as effective as the IM injection | pain scores, oral versus sublingual route [7]: no significant differences

SMILES: Oc1ccc(C=Cc2cc(O)cc(O)c2)cc1 [resveratrol]
inhibition of TNF-induced NF-KappaB activation [1]: inhibited

SMILES: O=C([O-])c1ccccc1O.[Na+] [salicylate, sodium salicylate]
inhibition of activation of the NF-KappaB pathway [2]: inhibit activation

SMILES: CC1=C(CC(=O)O)c2cc(F)ccc2/C1=C\c1ccc([S+](C)[O-])cc1 (centres unmarked) [sulindac]
inhibition of TNF-induced NF-KappaB activation [1]: inhibited

SMILES: CC/C(=C(\c1ccccc1)c1ccc(OCCN(C)C)cc1)c1ccccc1 [tamoxifen]
inhibition of TNF-induced NF-KappaB activation [1]: inhibited
